Molecular target: Signal transducer and activator of transcription 3 (Homo sapiens, UniProt P40763)
Assay: EMSA Based Assay: A screening process evaluated in vitro disruption of STAT3(dimer)-DNA formation through a previously published EMSA based assays, giving a valuable insight into the inhibitor's mode of action against the STAT3 homo-dimer.

Signal transducer and activator of transcription 3, sequence (P40763 whole entry): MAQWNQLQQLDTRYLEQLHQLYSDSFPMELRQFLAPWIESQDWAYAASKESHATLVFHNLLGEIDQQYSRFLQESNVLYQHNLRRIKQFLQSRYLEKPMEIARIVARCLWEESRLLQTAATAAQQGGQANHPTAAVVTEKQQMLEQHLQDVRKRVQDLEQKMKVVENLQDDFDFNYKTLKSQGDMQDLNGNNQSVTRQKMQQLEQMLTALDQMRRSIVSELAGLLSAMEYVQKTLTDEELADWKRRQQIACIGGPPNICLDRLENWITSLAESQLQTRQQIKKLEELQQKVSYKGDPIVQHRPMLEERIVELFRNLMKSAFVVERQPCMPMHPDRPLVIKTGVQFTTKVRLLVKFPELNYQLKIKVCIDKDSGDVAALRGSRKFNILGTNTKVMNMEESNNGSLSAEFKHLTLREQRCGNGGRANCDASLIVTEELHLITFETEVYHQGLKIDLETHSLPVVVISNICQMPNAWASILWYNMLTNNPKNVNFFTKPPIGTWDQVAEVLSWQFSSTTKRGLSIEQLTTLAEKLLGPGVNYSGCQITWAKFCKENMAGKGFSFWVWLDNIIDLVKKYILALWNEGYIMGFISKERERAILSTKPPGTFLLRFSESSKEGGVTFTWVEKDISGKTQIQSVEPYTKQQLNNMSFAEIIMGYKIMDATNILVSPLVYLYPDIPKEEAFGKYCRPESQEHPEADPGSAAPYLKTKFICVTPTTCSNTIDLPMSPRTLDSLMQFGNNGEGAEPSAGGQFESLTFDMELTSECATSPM

| SMILES | IC50 |
| --- | --- |
| O=C(Nc1ccc(C2CCCCC2)cc1)c1nc(-c2ccccc2)sc1Cc1ccc(OP(=O)(O)O)cc1 | 775 µM |
| CCCCCCNC(=O)c1nc(-c2cccc3ccccc23)sc1Cc1ccc(OP(=O)(O)O)cc1 | 25 µM |
| O=C(Nc1ccc(C2CCCCC2)cc1)c1nc(-c2ccccc2)oc1Cc1ccc(OP(=O)(O)O)cc1 | 33 µM |
| CCCCCCNC(=O)c1nc(-c2ccccc2)oc1Cc1ccc(OP(=O)(O)O)cc1 | > 1000 µM |
| CCCCCCNC(=O)c1nc(-c2cccc3ccccc23)oc1Cc1ccc(OP(=O)(O)O)cc1 | 58 µM |
| O=C(Nc1ccc(C2CCCCC2)cc1)c1nc(-c2cccc3ccccc23)oc1Cc1ccc(OP(=O)(O)O)cc1 | 255 µM |
| O=C(Nc1ccc(C2CCCCC2)cc1)c1nc(-c2ccccc2)oc1Cc1ccc(O)cc1 | > 1000 µM |
| O=C(O)c1nc(-c2ccccc2)oc1Cc1ccc(OP(=O)(O)O)cc1 | > 1000 µM |
| CCCCCCNC(=O)c1nc(-c2ccccc2)sc1Cc1ccc(OP(=O)(O)O)cc1 | 150 µM |
| O=C(Nc1ccc(C2CCCCC2)cc1)c1nc(-c2cccc3ccccc23)sc1Cc1ccc(OP(=O)(O)O)cc1 | 350 µM |
